Measurements taken from patent US20090099237A1, “Methods of treating inflammatory diseases” (Roche Palo Alto LLC, priority 2007, published 2009).

How the values were obtained:
[1] = tested on: LPS-induced air pouch synovitis; assay: Air pouch synovitis model; type: in vivo, Balbc/J mice; conditions: 1 μg LPS, FIG. 3
From the text: (§1) Selective CK1α, CK1α-CK1δ, CK1α-CK1ε or CK1α-CK1δ-CK1ε inhibitors can be tested for their antiinflammatory effects using a variety of in vitro and in vivo tests that are well known in the art. One such in vitro test involves the application of the inhibitor to human neutrophils to observe whether the induction of inflammatory cytokines, such as IL-8, by tumor necrosis factor (TNF) or lipopolysaccharide (LPS) can be reduced. This test is further described in Example 3. An example of an in vivo test, as described in Example 4, is the air pouch model of inflammatory synovitis in mice in which the inhibitors are tested for their blockade of neutrophil influx as well as of inflammatory cytokine accumulation.
Adult Balbc/J mice were purchased from Charles River Labs and housed and utilized according IACUC protocols and standards. The airpouch was inflated on the dorsal surface of each mouse with 3 ml of air, after light anesthesia with CO2/O2 mix. Three days later each pouch was re-inflated with 3 mls of air. After an additional three days, the pouches were injected with vehicle or compound (normally in 0.1% DMSO in PBS) in 1 ml per pouch. After 20 to 30 minutes, each pouch received 1 μg of LPS or control (PBS). The animals were euthanized four to six hours later. The pouches were flushed with 2 ml of PBS, the cells were then collected, counted and normalized for volume recovered. The fluid recovered was analyzed for cytokine production (Luminex Mouse 21-plex assay). The cells were lysed for RNA or protein analysis.

[2] = tested on: IL-8 production in neutrophils; assay: Neutrophil assay, IL-8 production; type: cell-based; conditions: human neutrophils stimulated by inflammatory agents; FIG. 2
From the text: as §1
The Histopaque 1077 and 1119 gradient density centrifugation method (Sigma-Aldrich) was used to isolate granulocytes from human blood. The granulocytes were recovered from the 1077/1119 interphase, washed twice with PBS. The red blood cells were lysed with PureGene red cell lysis buffer (Gentra Biosystems). The cells were washed again and resuspended in growth media (RPMI, 10% FBS, β-mercaptoethanol, Pen/Strep/glutamine and sodium pyruvate) at a density of 1 to 5 million per ml. […] The supernatant was analyzed for cytokine production (Luminex human 22-plex assay) and the cells were lysed for RNA production and analysis.

CK1α = target: T1, CK1α (Homo sapiens, UniProt P48729); assay: In vitro kinase assay (33P, peptide substrate); type: biochemical
T1 construct: purchased Invitrogen
T1 sequence (P48729 whole entry): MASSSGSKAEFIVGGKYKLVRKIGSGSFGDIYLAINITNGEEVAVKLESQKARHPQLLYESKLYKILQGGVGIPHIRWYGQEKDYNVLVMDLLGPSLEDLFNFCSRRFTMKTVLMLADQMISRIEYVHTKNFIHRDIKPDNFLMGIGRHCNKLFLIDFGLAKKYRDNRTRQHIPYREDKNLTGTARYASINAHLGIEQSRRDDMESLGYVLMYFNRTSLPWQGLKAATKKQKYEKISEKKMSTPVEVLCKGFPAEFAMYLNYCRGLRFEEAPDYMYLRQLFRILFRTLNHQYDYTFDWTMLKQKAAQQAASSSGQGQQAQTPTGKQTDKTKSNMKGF

IC50 (CK1α): 1400 nM
SMILES: NC(=O)c1ccc(-c2nc(-c3ccc4c(c3)OCO4)c(-c3ccccn3)[nH]2)cc1 [SB431542, 4-(4-benzo-[1,3]dioxol-5-yl-5-pyridin-2-yl-1H-imidazol-2-yl)benzamide]
production of IL-6 ([1]; mouse air pouch fluid): inhibited
production of MCP1 ([1]; mouse air pouch fluid): inhibited
neutrophil influx ([1]; mouse air pouch, compound injected into pouch): inhibited
inhibition of IL-8 production in neutrophils [2]: dose-dependent inhibition
